Measured values published in US20050171012A1, “Preventives/remedies for bone/joint diseases” (TAKEDA CHEMICAL INDUSTRIES, LTD., priority 2001, published 2005).
One block for each compound: values may come before it.

Tests used:
[1] = test system: Normal human articular chondrocytes of knee (NHAC-kn); experiment: Induction of alkaline phosphatase activity in normal human articular chondrocytes of knee by T3; format: cell-based; settings: NHAC-kn cells, 0.05-50 nM T3, 6 days; FIG. 2
Procedure: Normal human articular chondrocytes of knee (NHAC-kn; Clonetics) were plated on gelatin-coated 24-well plates (Iwaki) at 2×10^5 cells/well and cultured in DMEM high glucose medium (Gibco) containing 1 μg/ml insulin, 1 μg/ml transferin, 1 ng/ml selenious acid (these components were contained in ITS; BD Bioscience), 1 mg/ml BSA, 50 μg/ml ascorbic acid phosphate magnesium salt n-hydrate (Wako) and 5 mM β-glycerophosphate in a CO2 incubator under 5% CO2 at 37° C. with addition of 0.05-50 nM T3 (triiodothyronine) (Sigma) if necessary. After 6 days, the culture broth was removed from cells and 200 μl of 10 mM Tris-HCl (pH 7.4) containing 0.1% Triton X-100 was added to each well. Then, cells were shaken at 4° C. for 1 hour on a horizontal shaker to thereby extract proteins from the cell layer. The alkaline phosphatase (AP) activity of the extract was determined from the yield of p-nitrophenol using p-nitrophenylphosphate as a substrate (Sigma). The protein content in the extract was measured with BCA protein assay reagent (Pierce) to thereby calculate the AP activity per a specific amount of protein.

[2] = test system: Normal human articular chondrocytes of knee (NHAC-kn); experiment: Induction of MMP13 gene expression in normal human articular chondrocytes of knee by T3; format: cell-based; settings: NHAC-kn cells, 0.1-10 nM T3, 6 days; FIG. 3
Procedure: Normal human articular chondrocytes of knee (NHAC-kn; Clonetics) were plated on gelatin-coated 96-well plates (Iwaki) at 2×10^5 cells/well and cultured in DMEM high glucose medium (Gibco) containing 1 μg/ml insulin, 1 μg/ml transferin, 1 ng/ml selenious acid (these components were contained in ITS; BD Bioscience) and 1 mg/ml BSA, and supplemented with 5 mM β-glycerophosphate (Sigma), 50 μg/ml ascorbic acid phosphate magnesium salt n-hydrate (Wako) and, if necessary, 0.1-10 nM T3 (triiodothyronine) (Sigma), in a CO2 incubator under 5% CO2 at 37° C. After 6 days, RNA was extracted from cells using RNeasy (Qiagen) according to the attached protocol. Using the total RNA as a template, cDNA was synthesized from random primers with TaqManreverse transcription reagent (Applied Biosystems). Subsequently, 2 μl of the reaction solution containing cDNA was mixed with a 2 μl reaction solution containing 0.34 μM of two primers (SEQ ID NO: 15 and SEQ ID NO: 16) and 1×PCR Master Mix (Applied Biosystems) and subjected to PCR. […]
The PCR was performed with ABI7700 sequence detector (Applied Biosystems). The number of copies of MMP13 cDNA was measured by real-time monitoring the amount of the PCR product. The number of copies of β-actin cDNA was also measured in the same manner using TaqMan β-actin control reagent (Applied Biosystems) and used as internal standard. […]

human DIO2 = molecular target: T1, human DIO2 (Homo sapiens, UniProt Q92813); experiment: Thyroid hormone deiodinase activity (T3 production from T4, T3 RIA) in disrupted COS-7 cells with DIO2 expression plasmid pTB2249; format: biochemical; settings: FIG. 4c
T1 construct: expressed in transfected cells; host or cells: COS-7 cells, transiently transfected with pTB2249 (pcDNA3.1 backbone), sonicated to disrupted cells
T1 sequence (Q92813 1-273): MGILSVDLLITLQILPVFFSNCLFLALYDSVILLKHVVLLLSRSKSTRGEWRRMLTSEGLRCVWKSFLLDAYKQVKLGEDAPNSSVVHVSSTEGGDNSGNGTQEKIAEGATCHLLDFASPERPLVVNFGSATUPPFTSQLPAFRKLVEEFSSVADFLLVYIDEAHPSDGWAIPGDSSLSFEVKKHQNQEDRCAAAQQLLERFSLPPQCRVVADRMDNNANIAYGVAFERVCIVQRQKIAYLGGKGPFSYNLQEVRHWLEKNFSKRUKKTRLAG
Text: (§1) Using human thyroid-derived cDNA (Marathon Ready cDNA; Clontech) as a template, the following sequences were amplified by PCR: the amino acid coding sequence (cds) of human DIO1 (type 1 thyroid hormone deiodinase) using primer 1 (SEQ ID NO: 17) and primer 2 (SEQ ID NO: 18); DIO1 selenocystein insertion sequence (SECIS) using primer 3 (SEQ ID NO: 19) and primer 4 (SEQ ID NO: 20); human DIO2 cds using primer 5 (SEQ ID NO: 21) and primer 6 (SEQ ID NO: 22); and DIO2 SECIS (Buettner et al., 1998) using primer 7 (SEQ ID NO: 23) and primer 8 (SEQ ID NO: 24).
(§2) The resultant DNAs for human DIO1 cds and human DIO2 cds were inserted into pcDNA3.1 (Invitrogen) individually to thereby obtain plasmids pTB2240 and pTB2242. Further, the resultant DNAs for human DIO1 SECIS and human DIO2 SECIS were inserted into pCR2.1 (Invitrogen) individually to thereby obtain plasmids pTB2241 and pTB2244. DIO1 SECIS and DIO2 SECIS were cut out with restriction enzymes Sca I and Not I (Takara Shuzo) and introduced into DIO1 or DIO2 coding sequence-inserted plasmid pretreated with restriction enzymes Eco RV and Not I (Takara Shuzo) to thereby construct DIO1 expression plasmid pTB2248 and DIO2 expression plasmid pTB2249.
(§3) COS-7 cells (3×10^5) were plated in 6 cm petri dishes. […]

[3] = molecular target: human DIO1 (type 1 thyroid hormone deiodinase) (Homo sapiens, UniProt P49895); settings: 1 mM PTU, T4 concentration 5 μM, 37° C. one hour; FIG. 4b
Text: as §1, §2, §3

Chain of human DIO1 (type 1 thyroid hormone deiodinase) (P49895 whole entry): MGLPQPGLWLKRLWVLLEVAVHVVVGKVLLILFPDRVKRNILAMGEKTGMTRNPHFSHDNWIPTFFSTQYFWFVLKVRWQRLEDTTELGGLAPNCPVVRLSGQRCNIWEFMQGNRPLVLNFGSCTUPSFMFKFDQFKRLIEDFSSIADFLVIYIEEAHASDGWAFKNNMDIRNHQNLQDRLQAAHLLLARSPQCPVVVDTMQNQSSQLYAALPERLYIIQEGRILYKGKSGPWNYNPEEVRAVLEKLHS

SMILES: N[C@@H](Cc1cc(I)c(Oc2ccc(O)c(I)c2)c(I)c1)C(=O)O [T3, triiodothyronine]
alkaline phosphatase (AP) activity of cell layer extract per amount of protein [1]: induced in a T3 concentration-dependent manner
mRNA of MMP13 (number of copies of MMP13 cDNA normalized with β-actin) [2]: induced in a T3 concentration-dependent manner

influence on DIO2 activity of pTB2249 (T3 production) (human DIO2; 1 mM PTU, 37° C. one hour): influenced little
inhibition of DIO1 activity (T3 production) [3]: completely inhibited
SMILES: CCCc1cc(=O)[nH]c(=S)[nH]1 [PTU, propylthiouracil]

SMILES: N[C@@H](Cc1ccc(Oc2cc(I)c(O)c(I)c2)c(I)c1)C(=O)O [rT3, riverse triiodothyronine]
inhibition of DIO2 activity of pTB2249 (T3 production) (human DIO2; rT3 5 μM, competition with T4, 37° C. one hour): partially inhibited
